Converted amounts (≈) assume the structure as drawn. Read-outs that look alike come from different tables or passages of the source.
Columns and labels:
[1] = target: Jack Bean Urease (Canavalia ensiformis, UniProt P07374); test: biochemical; conditions: for % inhibition: urease
Experimental: Urease inhibitory potential for each synthesisized compound (T1–T20) was evaluated using Jack Bean Urease by Indophenol method (Table 5, Figs. 9, 10, 11). 250 µl of jack bean urease (4U) was mixed with 250 µl of different synthesized test compounds and standard of different concentrations [dissolved in DMSO/H2O mixture (1:1 v/v)]. The mixture was pre-incubated for 1 h at 37 °C in test tubes. 2 ml of 100 mM phosphate buffer (pH 6.8) containing 500 mM urea and 0.002% phenol red as an indicator were added in sample test tubes after pre incubation and again incubated at room temperature. Absorbance of reaction mixture was recorded by ELISA at 570 nm. Ammonium carbonate increased the pH of phosphate buffer from 6.8 to 7.7 which was produced from urea by urease enzyme and the end peak was measured by the colour of phenol red indicator [16].
The percentage inhibition of urease enzyme was calculated by using following formula: I%=Acontrol-Asample/Acontrol×100,
where Acontrol is the absorbance of the control; Asample is the absorbance of the test compound.

[2] = test system: HCT116 (human colon cancer cells); test: Anticancer evaluation, SRB assay; format: cell-based; conditions: Homo sapiens, HCT-116; HCT116, 72 h, SRB; mean of at least triplicates
Experimental: HCT116 (human colon cancer cells) were seeded at 2500 cells/well (96 well plate), allowed to attach overnight, exposed to the respective compounds for 72 h and subjected to SRB assay (570 nm). Data represent mean IC50 of at least triplicates. The compounds were all dissolved in DMSO as stock of 100 mg/ml. […] The highest concentration of each compound tested (100 μg/ml) contained only 0.1% DMSO.

[3] = DPPH free radical scavenging activity; conditions: for IC50: DPPH antioxidant; for % inhibition: DPPH
Experimental: In the DPPH free radical scavenging activity, compounds (T1–T20) were evaluated for their free radical scavenging activity with ascorbic acid as standard compound. The scavenging effect increased with the increasing concentrations of sample compounds. DPPH is relatively stable nitrogen centered free radical that easily accepts an electron or hydrogen radical to become a stable diamagnetic molecule. DPPH radicals react with suitable reducing agents as a result of which the electrons become paired off forming the corresponding hydrazine. The solution therefore loses colour stoichometrically depending on the number of electrons taken up. […] The sample solutions were incubated for 30 min at room temperature in dark place and after then absorbance was recorded against the blank solution at 517 nm. The relative percent of DPPH scavenging activity was calculated according to the following equation: I%=Acontrol-Asample/Acontrol×100,
where Acontrol is the absorbance of the control, Asample is the absorbance of the test compound.

[4] = test system: Bacillus subtilis; test: In vitro antimicrobial screening, tube dilution method; format: cell-based; conditions: Bacillus subtilis; B. substilis, Gram +ve; nutrient broth, 37 ± 1 °C, 24 h; read-out: Minimum inhibitory concentration
Experimental: (§1) The in vitro antimicrobial screening of the synthesized 1,2,4-triazole derivatives (T1–T20) in μM was determined against Gram-positive Bacillus subtilis, […], Gram-negative Escherichia coli bacterium and fungal strains Candida albicans and Aspergillus niger by tube dilution method using ciprofloxacin, amoxycillin (antibacterial) and fluconazole (antifungal) as reference drugs. DMSO was used to dissolve the reference and sample derivatives (T1–T20). Dilutions were prepared in nutrient broth (I.P.) for bacterial (incubated at 37 ± 1 °C for 24 h) and Sabouraud dextrose broth (I.P.) for fungal species (37 ± 1 °C for 48 h for C. albicans) and (25 ± 1 °C for 7 days for A. niger) (Table 3, Figs. 4 and 5).

[5] = test system: Pseudomonas aeruginosa; test: as above; format: cell-based; conditions: Pseudomonas aeruginosa; P. aeruginosa, Gram −ve; nutrient broth, 37 ± 1 °C, 24 h; read-out: Minimum inhibitory concentration
Experimental: as §1

[6] = test system: Escherichia coli; test: as above; format: cell-based; conditions: Escherichia coli; E. coli, Gram −ve; nutrient broth, 37 ± 1 °C, 24 h; read-out: Minimum inhibitory concentration
Experimental: as §1

[7] = test system: Aspergillus niger; test: In vitro antifungal screening, tube dilution method; format: cell-based; conditions: A. niger, Sabouraud dextrose broth, 25 ± 1 °C, 7 days, read-out: Minimum inhibitory concentration
Experimental: as §1

[8] = test system: Candida albicans; test: as above; format: cell-based; conditions: Candida albicans; C. albican; Sabouraud dextrose broth, 37 ± 1 °C, 48 h; read-out: Minimum inhibitory concentration
Experimental: as §1

Sequence of Jack Bean Urease (P07374 whole entry, looked up): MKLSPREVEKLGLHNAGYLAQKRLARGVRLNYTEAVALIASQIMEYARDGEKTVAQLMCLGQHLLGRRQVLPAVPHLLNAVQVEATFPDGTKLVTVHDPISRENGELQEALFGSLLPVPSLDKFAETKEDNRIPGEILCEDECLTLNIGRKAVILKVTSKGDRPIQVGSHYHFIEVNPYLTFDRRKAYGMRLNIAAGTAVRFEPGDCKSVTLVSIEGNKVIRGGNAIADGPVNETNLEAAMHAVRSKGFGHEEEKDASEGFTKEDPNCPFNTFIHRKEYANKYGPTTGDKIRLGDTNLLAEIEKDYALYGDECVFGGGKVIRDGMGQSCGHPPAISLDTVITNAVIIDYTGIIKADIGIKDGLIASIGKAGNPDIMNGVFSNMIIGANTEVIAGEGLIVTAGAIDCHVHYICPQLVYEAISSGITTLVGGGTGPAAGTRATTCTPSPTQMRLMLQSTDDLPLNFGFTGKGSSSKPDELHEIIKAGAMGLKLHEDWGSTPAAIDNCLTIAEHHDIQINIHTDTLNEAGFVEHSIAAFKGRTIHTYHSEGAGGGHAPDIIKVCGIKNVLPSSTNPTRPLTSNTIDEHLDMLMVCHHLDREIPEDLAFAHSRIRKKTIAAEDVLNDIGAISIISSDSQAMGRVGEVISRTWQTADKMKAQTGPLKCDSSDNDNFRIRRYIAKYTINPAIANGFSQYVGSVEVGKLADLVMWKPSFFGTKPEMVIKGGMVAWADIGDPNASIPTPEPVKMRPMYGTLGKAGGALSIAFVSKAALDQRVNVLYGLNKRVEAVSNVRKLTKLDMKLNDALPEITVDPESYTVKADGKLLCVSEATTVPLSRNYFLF

Row | Compound | IC50 [1] | inhibition at 25 µg/mL [1] | inhibition at 50 µg/mL [1] | inhibition at 75 µg/mL [1] | inhibition at 100 µg/mL [1] | IC50 [2] | IC50 [3] | % inhibition ([3]; 25 µg/ml) | % inhibition ([3]; 50 µg/ml) | % inhibition ([3]; 75 µg/ml) | % inhibition ([3]; 100 µg/ml) | melting point | MIC [4] | MIC [5] | MIC [6] | MIC ([7]; Aspergillus niger, 168 h) | MIC [8] | further results
1 | CCCCCCCCCCCCCCCc1nnc(S)n1N=Cc1ccc(OC)c(OC)c1 [Compound T4] | 106 µM | 35.5% | 49.5% | 63.7% | 79.5% | 7.79 µM | 37.50 µg/mL (≈ 79 µM) | 38.45% | 58.34% | 88.61% | 98.89% | 188 to 191 °C | 52.6 µM (≈ 25 µg/mL) | 52.6 µM (≈ 25 µg/mL) | 105 µM (≈ 50 µg/mL) | 105 µM (≈ 50 µg/mL) | 52.6 µM (≈ 25 µg/mL) | –
2 | O=C1O[C@H]([C@@H](O)CO)C(O)=C1O [Ascorbic acid, reference compound] | – | – | – | – | – | – | 35.44 µg/mL (≈ 201 µM) | 38.67% | 63.68% | 84.78% | 94.45% | – | – | – | – | – | – | –
3 | CCCCCCCCCCCCCCCc1nnc(S)n1N=Cc1cccc([N+](=O)[O-])c1 [Compound T16] | 115 µM | 45.8% | 49.1% | 53.9% | 59.1% | 169 µM | 41.30 µg/mL (≈ 89.8 µM) | 43.65% | 51.45% | 67.26% | 81.76% | 199 to 202 °C | 109 µM (≈ 50 µg/mL) | 109 µM (≈ 50 µg/mL) | 218 µM (≈ 100 µg/mL) | 218 µM (≈ 100 µg/mL) | 218 µM (≈ 100 µg/mL) | –
4 | NC(N)=S [Thiourea, reference compound] | – | – | – | – | – | – | – | – | – | – | – | – | – | – | – | – | – | IC50 ([1]; urease inhibition): 54.25 µg/mL; % inhibition ([1]; 25 µg/ml): 29.98%; % inhibition ([1]; 50 µg/ml): 46.76%; % inhibition ([1]; 75 µg/ml): 67.78%; % inhibition ([1]; 100 µg/ml): 76.78%
5 | CCCCCCCCCCCCCCCc1nnc(S)n1N=Cc1ccccc1 [Compound T1] | 125 µM | 25.8% | 48% | 72.9% | 92% | > 241 µM | 46.83 µg/mL (≈ 113 µM) | 25.45% | 49.65% | 69.67% | 94.78% | 184 to 187 °C | 120 µM (≈ 50 µg/mL) | 241 µM (≈ 100 µg/mL) | 241 µM (≈ 100 µg/mL) | 120 µM (≈ 50 µg/mL) | 241 µM (≈ 100 µg/mL) | –
6 | CCCCCCCCCCCCCCCc1nnc(S)n1N=Cc1ccc(OC)c(O)c1 [Compound T6] | 102 µM | 38.5% | 50.3% | 65.6% | 80.9% | 112 µM | 45.66 µg/mL (≈ 99.1 µM) | 31.67% | 53.67% | 77.78% | 92.67% | 189 to 192 °C | 108 µM (≈ 50 µg/mL) | 54.2 µM (≈ 25 µg/mL) | 54.2 µM (≈ 25 µg/mL) | 217 µM (≈ 100 µg/mL) | 108 µM (≈ 50 µg/mL) | MIC [7]: 217.0 µM (≈ 100 µg/mL)
7 | CCCCCCCCCCCCCCCc1nnc(S)n1N=Cc1ccc(Br)cc1 [Compound T14] | 136 µM | 41.7% | 46.2% | 50.5% | 57.8% | 128 µM | 37.52 µg/mL (≈ 76 µM) | 37.56% | 60.68% | 85.79% | 95.61% | 193 to 196 °C | 50.6 µM (≈ 25 µg/mL) | 101 µM (≈ 50 µg/mL) | 101 µM (≈ 50 µg/mL) | 101 µM (≈ 50 µg/mL) | 203 µM (≈ 100 µg/mL) | –
